Test results: US20230075779A1, “METHODS AND COMPOSITIONS FOR TREATING CANCER OR VIRAL INFECTION WITH A PLA2G2D ANTAGONIST” (Apeximmune Therapeutics Inc., priority 2020, published 2023)
“Also recorded” adds a separate entry of the source.

Assays:
isolated T cells = experiment: Proliferation of isolated T cell cultures with anti-CD3/anti-CD28 stimulation; assay type: cell-based, human
Experimental: To evaluate the effect of PLA2G2D protein on isolated T cells, […] protein as well as with 1 μg/ml anti-CD3 (OKT3) and 0.2 μg/ml anti-CD28 (CD28.2) in 100 μl of PBS. The following day, plates were washed twice with PBS before addition of T cells. T cells were isolated from PBMC using a Pan T Cell Isolation Kit (Miltenyi) and labeled with CFSE as described above. 1×10^5 purified and labeled T cells were added to each well of the coated plate in a final volume of 200 μl RPMI. T cells were allowed to proliferate for 72 hours at 37° C. before supernatants were collected for IFNγ and IL-2 analysis by MSD and proliferation was analyzed by FACS.

[1] = system: PBMC derived CD4+ and CD8+ T cells; experiment: T cell proliferation (CFSE) in anti-CD3/anti-CD28 stimulated PBMC culture, soluble protein; assay type: cell-based, human; details: soluble protein 0-20 μg/ml, 72 hours
Experimental: The effect of human PLA2G2D-Fc on T cell activation was assessed in peripheral blood mononuclear cell (PBMC) or isolated T cell cultures. PBMC were isolated from leukoreduction system (LRS) chambers from healthy human donors by centrifugation over Ficoll-Paque Plus (GE Life Sciences) and labeled in a 5 μM CFSE solution (Molecular Probes) for 12 min at 37° C. and washed. 2×10^5 labeled PBMC per well of a 96 well round bottom plate were then stimulated with 1 μg/ml anti-CD3 (OKT3, Invitrogen) and 0.2 μg/ml anti-CD28 (CD28.2, Invitrogen) in the presence of soluble 0-20 μg/ml human PLA2G2D-Fc or control human IgG1-Fc protein (Sino Biological) as indicated in a final volume of 200 μl RPMI (Corning). PBMC cultures were incubated for 72 hours at 37° C. before the supernatants were harvested and measured for IFNγ and IL-2 levels using MSD V-plex assays (Meso Scale Discovery). T cell proliferation within the PBMC culture was simultaneously assessed by staining cells with fluorophore-conjugated anti-CD3, anti-CD4, and anti-CD8 antibodies (Biolegend) and Live/Dead Fixable dead cell stain (Molecular Probes), and running on a BD LSRFortessa X-20 flow cytometer (Becton Dickinson). FACS data was analyzed using FlowJo software. […]

PBMC cultures = experiment: IFNγ and IL-2 levels in stimulated PBMC culture supernatants (MSD V-plex); assay type: cell-based, human; details: soluble protein 0-20 μg/ml, 72 hours
Experimental: The effect of human PLA2G2D-Fc on T cell activation was assessed in peripheral blood mononuclear cell (PBMC) or isolated T cell cultures. PBMC were isolated from leukoreduction system (LRS) chambers from healthy human donors by centrifugation over Ficoll-Paque Plus (GE Life Sciences) and labeled in a 5 μM CFSE solution (Molecular Probes) for 12 min at 37° C. and washed. 2×10^5 labeled PBMC per well of a 96 well round bottom plate were then stimulated with 1 μg/ml anti-CD3 (OKT3, Invitrogen) and 0.2 μg/ml anti-CD28 (CD28.2, Invitrogen) in the presence of soluble 0-20 μg/ml human PLA2G2D-Fc or control human IgG1-Fc protein (Sino Biological) as indicated in a final volume of 200 μl RPMI (Corning). PBMC cultures were incubated for 72 hours at 37° C. before the supernatants were harvested and measured for IFNγ and IL-2 levels using MSD V-plex assays (Meso Scale Discovery). T cell proliferation within the PBMC culture was simultaneously assessed by staining cells with fluorophore-conjugated anti-CD3, anti-CD4, and anti-CD8 antibodies (Biolegend) and Live/Dead Fixable dead cell stain (Molecular Probes), and running on a BD LSRFortessa X-20 flow cytometer (Becton Dickinson). FACS data was analyzed using FlowJo software.

[2] = system: CD4+ and CD8+ T cells in PBMC cultures; experiment: T cell proliferation in stimulated PBMC culture, plate-immobilized protein; assay type: cell-based, human; details: immobilized protein coated at 0-10 μg/ml
Experimental: The effect of human PLA2G2D-Fc on T cell activation was assessed in peripheral blood mononuclear cell (PBMC) or isolated T cell cultures. […] PBMC cultures were incubated for 72 hours at 37° C. before the supernatants were harvested and measured for IFNγ and IL-2 levels using MSD V-plex assays (Meso Scale Discovery). T cell proliferation within the PBMC culture was simultaneously assessed by staining cells with fluorophore-conjugated anti-CD3, anti-CD4, and anti-CD8 antibodies (Biolegend) and Live/Dead Fixable dead cell stain (Molecular Probes), and running on a BD LSRFortessa X-20 flow cytometer (Becton Dickinson). FACS data was analyzed using FlowJo software.
To assess the effect of immobilized PLA2G2D protein on T cell proliferation in PBMC cultures, the same assay was utilized except 100 μl of 0-10 μg/ml human PLA2G2D-Fc or control human IgG1-Fc protein was coated overnight in PBS at 4° C. on 96-well flat bottom plates the day before PBMC were prepared and added along with anti-CD3 and anti-CD28 antibodies.

primary human T cells = experiment: Binding of PLA2G2D-Fc to resting and activated primary human T cells (FACS); details: 0-10 μg/ml
Experimental: To determine whether PLA2G2D elicits immune suppression by directly binding to T cells in vitro, the level of PLA2G2D binding was assessed on resting and activated primary human T cells. T cells were isolated from PBMC using a Pan T Cell Isolation Kit (Miltenyi) and cultured in the presence or absence of beads loaded with anti-human CD2, CD3, and CD28 antibodies (human T Cell Activation/Expansion Kit, Miltenyi) in RPMI for 48 hours at 37° C. Stimulated or unstimulated T cells were then harvested, washed, and incubated with 0-10 μg/ml of human PLA2G2D-Fc protein or human IgG1-Fc protein for 30 minutes at 4° C. Cells were washed 3 times with PBS and then stained with Alexa 488-conjugated goat anti-human IgG1 antibodies (Invitrogen) for 30 minutes at 4° C., washed, then analyzed by FACS.

PLA2G2D = biological target: T1, PLA2G2D (Homo sapiens, UniProt Q9UNK4); experiment: Reversal of PLA2G2D-Fc induced suppression of T cell proliferation in PBMC culture by sPLA2 inhibitor; assay type: cell-based; details: 0-25 μM inhibitor, PBMC culture with wild type PLA2G2D-Fc
T1 sequence (Q9UNK4 21-145): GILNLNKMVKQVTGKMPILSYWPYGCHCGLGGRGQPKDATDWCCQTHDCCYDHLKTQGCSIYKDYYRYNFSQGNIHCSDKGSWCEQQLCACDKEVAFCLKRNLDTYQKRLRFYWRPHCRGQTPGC

Molecule	proliferation of isolated T cell cultures (isolated T cells; immobilized protein coated at 0-10 μg/ml, 72 hours)	suppressive effect on isolated T cells (isolated T cells; soluble protein added instead of coated (data not shown))	CD4+ and CD8+ T cell proliferation [1]	CD4+ and CD8+ T cell proliferation ([1]; listed as PLA2G2D protein)	levels of IFNγ and IL-2 (PBMC cultures)	levels of IFNγ and IL-2 (PBMC cultures; listed as PLA2G2D protein)	CD4+ and CD8+ T cell proliferation [2]	CD4+ and CD8+ T cell proliferation ([2]; listed as PLA2G2D protein)	binding to activated CD4+ and CD8+ T cells (primary human T cells; stimulated T cells, compared with control human IgG1-Fc)	binding to unstimulated T cells (primary human T cells; unstimulated T cells)	reversal of immune suppression induced by PLA2G2D (PLA2G2D)
PLA2G2D-Fc: soluble human PLA2G2D-Fc protein (Sino Biological); the immunosuppressive protein studied	dose-dependently suppresses	no suppressive effect	dose-dependently suppresses; also recorded: dose dependently suppressed	dose-dependently suppresses	dose-dependently and significantly decreased	dose-dependently suppresses	suppressed	dose-dependently suppresses	preferentially binds	to a small degree	–
CCc1c(C(=O)C(N)=O)c2c(OCC(=O)O)cccc2n1Cc1ccccc1 [LY315920]	–	–	–	–	–	–	–	–	–	–	does not rescue immune suppression; also recorded: does not reverse immune suppression
